# Experimental data reported in patent US11786513B2, “Compositions comprising berberine” (INDENA S.P.A., priority 2018, dated 2023).
# Columns and labels:
# [1] = Solubility test in simulated biological fluids (FaSSGF), UPLC; type: physicochemical; conditions: Fasted-State Simulated Gastric Fluid (FaSSGF), fassgf or other biorelevant, thermodynamic from solid, pH 1.6, samples containing equal amounts of BBR
# Experimental: The solubility test was conducted by comparing samples containing equal amounts of BBR. […] The analysis was conducted by the UPLC (Ultra High Performance Liquid Chromatography) method described below: ANALYSIS CONDITIONS: Flow rate: 0.4 ml/minute; Detection: 348 nm. SAMPLE SOLUTION: 30 mg in 200 ml (Chromatogram of a typical sample of ˜0.15 mg/ml, in FIG. 1). STANDARD SOLUTION: 10 mg of pure reference BBR in 200 ml of methanol (Standard solution ˜0.05 mg/ml, typical chromatogram in FIG. 2). The solubility test was conducted using Fasted-State Simulated Gastric Fluid (FaSSGF), prepared as reported below, as solvent. 1) Preparation of an NaCl/HCl solution for FaSSGF (1 litre): 2 g of NaCl was dissolved in […] of purified water, the pH was adjusted to 1.6 with HCl, and the mixture was made up to volume with purified water (1 litre). 2) 0.06 g of powder* (FaSSGF—Biorelevant media) was added to about 500 ml of the NaCl/HCl solution at room temperature and made up to volume (1 l) with the NaCl/HCl solution to obtain a clear, ready-for-use liquid. *Final sodium taurocholate 0.08 mM, final lecithin 0.02 mM
# [2] = oral administration; cited from earlier work
solubility [1] [µg/mL],SMILES,fraction which reaches the systemic circulation [2] [%],oral absorption [2]
113,"COc1ccc2cc3[n+](cc2c1OC)CCc1cc2c(cc1-3)OCO2 [Reference 1, berberine]",–,–
–,"COc1ccc2cc3[n+](cc2c1OC)CCc1cc2c(cc1-3)OCO2 [BBR, Berberine]",0.36,≤ 0.5 % of the administered dose
